Test results taken from the supplement of paper PMC10307832.

Columns and labels:
Assay in all cases: relative viability (nuclei count vs DMSO), 5 days (fraction); higher = more cells survive
Elesclomol + Pemetrexed = compound: CN(NC(=O)CC(=O)NN(C)C(=S)c1ccccc1)C(=S)c1ccccc1 [Elesclomol] + Nc1nc2[nH]cc(CCc3ccc(C(=O)N[C@@H](CCC(=O)O)C(=O)O)cc3)c2c(=O)[nH]1 [Pemetrexed] (partner 0.2 µM)
Method in brief: (§1)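 Relative viability was taken as the ratio of nuclei in treated wells to nuclei in vehicle wells. Lung cancer cell lines in 1536-well plates received compounds by pin tool one day after seeding, either one drug alone or a fixed anchor-drug dose plus five library-drug doses (not always all listed) in √10 steps. Nuclei were counted on 4× images after 5 days of treatment, and values are medians of duplicate plates.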

Elesclomol + Lapatinib = compound: CN(NC(=O)CC(=O)NN(C)C(=S)c1ccccc1)C(=S)c1ccccc1 [Elesclomol] + CS(=O)(=O)CCNCc1ccc(-c2ccc3ncnc(Nc4ccc(OCc5cccc(F)c5)c(Cl)c4)c3c2)o1 [Lapatinib] (partner 2 µM)
Method in brief: as §1

Elesclomol + Bortezomib = compound: CN(NC(=O)CC(=O)NN(C)C(=S)c1ccccc1)C(=S)c1ccccc1 [Elesclomol] + CC(C)C[C@H](NC(=O)[C@H](Cc1ccccc1)NC(=O)c1cnccn1)B(O)O [Bortezomib] (partner 0.002 µM)
Method in brief: as §1

Elesclomol + Pictilisib = compound: CN(NC(=O)CC(=O)NN(C)C(=S)c1ccccc1)C(=S)c1ccccc1 [Elesclomol] + CS(=O)(=O)N1CCN(Cc2cc3nc(-c4cccc5[nH]ncc45)nc(N4CCOCC4)c3s2)CC1 [Pictilisib] (partner 1 µM)
Method in brief: as §1

Elesclomol + Palbociclib = compound: CN(NC(=O)CC(=O)NN(C)C(=S)c1ccccc1)C(=S)c1ccccc1 [Elesclomol] + CC(=O)c1c(C)c2cnc(Nc3ccc(N4CCNCC4)cn3)nc2n(C2CCCC2)c1=O [Palbociclib] (partner 0.5 µM)
Method in brief: as §1

| Cell Line | relative viability (Elesclomol + Pemetrexed; first compound 0.003162 µM) | relative viability (Elesclomol + Pemetrexed; first compound 0.01 µM) | relative viability (Elesclomol + Pemetrexed; first compound 0.03162 µM) | relative viability (Elesclomol + Pemetrexed; first compound 0.1 µM) | relative viability (Elesclomol + Lapatinib; first compound 0.003162 µM) | relative viability (Elesclomol + Lapatinib; first compound 0.01 µM) | relative viability (Elesclomol + Lapatinib; first compound 0.03162 µM) | relative viability (Elesclomol + Lapatinib; first compound 0.1 µM) | relative viability (Elesclomol + Bortezomib; first compound 0.003162 µM) | relative viability (Elesclomol + Bortezomib; first compound 0.01 µM) | relative viability (Elesclomol + Bortezomib; first compound 0.03162 µM) | relative viability (Elesclomol + Bortezomib; first compound 0.1 µM) | relative viability (Elesclomol + Pictilisib; first compound 0.003162 µM) | relative viability (Elesclomol + Pictilisib; first compound 0.01 µM) | relative viability (Elesclomol + Pictilisib; first compound 0.03162 µM) | relative viability (Elesclomol + Pictilisib; first compound 0.1 µM) | relative viability (Elesclomol + Palbociclib; first compound 0.003162 µM) | relative viability (Elesclomol + Palbociclib; first compound 0.01 µM) | relative viability (Elesclomol + Palbociclib; first compound 0.03162 µM) | relative viability (Elesclomol + Palbociclib; first compound 0.1 µM) |
| --- | --- | --- | --- | --- | --- | --- | --- | --- | --- | --- | --- | --- | --- | --- | --- | --- | --- | --- | --- | --- |
| NCI-H2228 | 0.307 | 0.308 | 0.143 | 0.0377 | 0.953 | 0.66 | 0.33 | 0.103 | 0.926 | 0.893 | 0.422 | 0.0364 | 0.395 | 0.352 | 0.132 | 0.0486 | 0.676 | 0.513 | 0.225 | 0.0449 |
| NCI-H2347 | 0.401 | 0.372 | 0.411 | 0.441 | 0.876 | 0.776 | 0.902 | 0.761 | 0.929 | 0.765 | 0.891 | 0.544 | 0.543 | 0.689 | 0.629 | 0.396 | 0.401 | 0.441 | 0.328 | 0.321 |
| NCI-H2405 | 1.03 | 0.707 | 0.323 | 0.297 | 1.16 | 0.292 | 0.291 | 0.289 | 0.959 | 0.842 | 0.515 | 0.458 | 0.472 | 0.249 | 0.228 | 0.236 | 0.507 | 0.395 | 0.303 | 0.28 |
| NCI-H3122 | 0.177 | 0.229 | 0.194 | 0.128 | 0.999 | 0.989 | 0.978 | 0.434 | 1.05 | 0.994 | 0.957 | 0.409 | 0.567 | 0.594 | 0.594 | 0.304 | 0.161 | 0.205 | 0.167 | 0.105 |
| PC-3 [JPC-3] | 1.04 | 0.714 | 0.518 | 0.499 | 0.43 | 0.386 | 0.519 | 0.405 | 0.82 | 0.73 | 0.764 | 0.755 | 0.738 | 0.604 | 0.878 | 0.581 | 0.609 | 0.495 | 0.456 | 0.411 |
| PC-14 | 0.14 | 0.0457 | 0.0214 | 0.0198 | 0.337 | 0.295 | 0.228 | 0.0843 | 0.862 | 0.244 | 0.0404 | 0.0297 | 0.417 | 0.0984 | 0.05 | 0.0156 | 0.317 | 0.0274 | 0.02 | 0.0209 |
| RERF-LC-KJ | 0.412 | 0.369 | 0.332 | 0.268 | 0.909 | 0.756 | 0.398 | 0.299 | 0.943 | 0.536 | 0.322 | 0.276 | 0.408 | 0.19 | 0.243 | 0.234 | 0.911 | 0.714 | 0.581 | 0.288 |
| SK-LU-1 | 1.01 | 0.889 | 0.625 | 0.521 | 0.908 | 0.518 | 0.333 | 0.105 | 1.45 | 0.424 | 0.38 | 0.116 | 0.55 | 0.469 | 0.319 | 0.178 | 0.35 | 0.305 | 0.344 | 0.388 |
| SW 1573 | 0.464 | 0.158 | 0.115 | 0.0205 | 1.04 | 0.517 | 0.185 | 0.135 | 1.02 | 0.174 | 0.105 | 0.103 | 0.479 | 0.121 | 0.104 | 0.074 | 0.269 | 0.104 | 0.0985 | 0.0326 |
| UMC-11 | 0.806 | 0.655 | 0.478 | 0.336 | 0.952 | 0.837 | 0.505 | 0.328 | 0.802 | 0.495 | 0.491 | 0.352 | 0.827 | 0.67 | 0.561 | 0.44 | 0.321 | 0.275 | 0.29 | 0.249 |
